Laboratory results as given in patent US20120041065A1, “LAURIC ACID DISTILLATE FOR ANIMAL FEED” (CAN TECHNOLOGIES, INC., priority 2010, published 2012).

What was measured:
[1] = test system: male broiler chickens (Ross 708); details: in vivo
grow-finish pigs = test: Fifth study: growth performance of grow-finish pigs fed HLAD, LA or BMD; details: P<0.05
[2] = test system: male broiler chickens (Ross 708); test: First study: growth performance and carcass evaluation in broilers fed HPKFAD or LA
[3] = test system: pigs (initial BW of 9.98 lbs); test: Fourth study: nursery pig challenge model (dirty room) with LAD, Mecadox, calsporin; type: in vivo; details: severely challenged pigs; d 0 to 40
Method: A total of 96 pigs (initial BW of 9.98 lbs) were allotted to one of 8 treatments (12 replicates per treatment with 1 pigs per replicate). The treatments were 1) a negative control (NC) diet with no antibiotic (Ab), 2) a control diet with an Ab (Mecadox), 3) a diet with LAD at 0.25%, 4) a diet with LAD at 0.5%, 5) a diet with LAD at 1%, 6) a diet with calsporin, 7) a diet with calsporin and LAD at 1%, 8) and a diet with calsporin and LAD at 0.5%. Feed intakes and body weights were determined at the end of each feeding phase. […] Also, ZnO and CuSO4 were not added into the diet to enhance the challenge. The feeding phases were from d 0 to […], d 11 to 20, d 20 to 40. The data, especially from Phase 1 and 2, illustrated the pigs were severely challenged in this trial, which enhanced the effect of the antibiotic. […] The optimum level of LAD was 0.25% for the early growth period and increased to 0.50% for the later growth period. Accordingly, the recommended level of HLAD to be fed to nursery pigs is between 0.25% and 0.5%.

[4] = test system: broilers challenged with coccidian vaccine and Clostridium Perfringens; type: in vivo; details: versus negative control; throughout the study
[5] = test system: broilers challenged with coccidia and Clostridia perfringens; type: in vivo
[6] = test system: broilers challenged with coccidian vaccine and Clostridium Perfringens; type: in vivo; details: diets that contained papain relative to any other diet; P<0.05

Question: What does the source list for `CCCCCCCCCCCC(=O)O` [LA, lauric acid]?
Answer: Removed Animals (Adverse Event), overall proportion of animals removed [1]: no differences; ADFI, Phase 3 (grow-finish pigs; LA at 0.1% relative to control diet or HLAD at 0.4%): decreased; overall ADFI ([2]; LA 0.1% versus negative control, P=0.166): numerically lower but not statistically significant; overall ADG ([2]; LA included at 0.2 and 0.4%, P 0.038): decline in overall ADG; breast and leg yield ([2]; LA treatments): did not so such an increase; overall feed efficiency, dose response ([2]; across inclusion levels, P<0.001): significant linear and plateau responses; overall ADFI ([2]; all non-zero LA treatments except 0.1% versus negative control): decrease; overall ADFI ([2]; all non-zero treatments versus negative control, P 0.045): decrease; overall feed efficiency ([2]; included at 0.4 and 0.8% compared to negative control, P>0.016 as printed): improved; Average Hot Carcass Weight ([2]; non-zero treatments versus control, P≧0.111): no differences; Average Breast Weight ([2]; non-zero treatments versus control, P≧0.236): no treatment differences; Average Leg Weight ([2]; non-zero treatments versus control, P≧0.267): no treatment differences; Percent Leg Yield ([2]; other HPKFAD and LA treatment comparisons, P≧0.195): No other treatment differences; Percent Breast Yield ([2]; other HPKFAD and LA treatment comparisons, P≧0.404): No other treatment differences

Question: For `COC(=O)N/N=C/c1c[n+]([O-])c2ccccc2[n+]1[O-]` [Mecadox], which “performance (feed intakes and body weights)” value [3] is on record?
Answer: improved performance

Question: For bacitracin methylene disalicylate [BMD], which performance [4] is on record?
Answer: tended to have improved performance

Question: What about the performance ([5]; BMD) of the same molecule?
Answer: only tended to improve performance

Question: And the “feed intake, day 7” value ([5]; BMD relative to any other dietary treatment, P<0.05)?
Answer: higher

Question: What about the “Feed efficiency, Phase 2” value (grow-finish pigs; antibiotic relative to LA at 0.1% or HLAD at 0.4%) of the same molecule?
Answer: increased

B1: papain: protease fed alone and in combination with hydrolyzed lauric acid (protein, UniProt P00784 134-345, looked up)
Papain: IPEYVDWRQKGAVTPVKNQGSCGSCWAFSAVVTIEGIIKIRTGNLNEYSEQELLDCDRRSYGCNGGYPWSALQLVAQYGIHYRNTYPYEGVQRYCRSREKGPYAAKTDGVRQVQPYNEGALLYSIANQPVSVVLEAAGKDFQLYRGGIFVGPCGNKVDHAVAAVGYGPNYILIKNSWGTGWGENGYIRIKRGTGNSYGVCGLYTSSFYPVKN
Question: B1 was tested. Which ADG [6] did it give?
Answer: decreased

Question: And the Feed intake [6]?
Answer: decreased
